According to patent publication US10314821B2, “Crystalline forms of 4-cyano-N-(2-(4,4-dimethylcyclohex-1-en-1-yl)-6-(2,2,6,6-tetramethyltetrahydro-2H-pyran-4-yl)pyridin-3-yl)-1H-imidazole-2-carboxamide” (Janssen Pharmaceutica NV, priority 2016, dated 2019):

Columns and labels:
Type in all cases: physicochemical
[1] = Slurry studies in organic solvents, form by XRPD
Procedure: Small scale saturated solutions of Compound A, Form I (prepared as described in Example 1 above) in the organic solvents noted in Example 2, except water, toluene, or heptane, were prepared as follows. Compound A, Form I (5-10 mg) was added to 2 mL HPLC vials and the selected solvent (50 μL) was added. The resulting slurries were stirred at 300 rpm for up to 1 day. At 1 hour and 1 day time-points, a sample of each slurry was placed on an XRPD sample holder and the solvent evaporated under ambient conditions to yield a solid residue which was then analyzed by X-ray powder diffraction.

[2] = Competitive slurry studies in water, form by XRPD
Procedure: Competitive slurry studies of Compound A, Forms II, IIA, IIB, III, IV, V, and VI were conducted at RT (room temperature, about 20° C.) and 50° C. in water. […] A small portion of the slurry was transferred to 50° C. after 2 days and analyzed using powder X-ray after being slurred at 50° C. for 2 hours (where a sample of the slurry was placed on an XRPD sample holder, the solvent allowed to evaporate under ambient conditions to yield a residue, and an XRPD measured for the residue). Complete conversion to Form I took place within 2 hours of heating.

[3] = Visual solubility of Compound A, Form I in solvents; conditions: 50 mg in 10 mL, stirred, heated to 40° C.; for solubility: organic solvent or mixture, thermodynamic from solid
Source text: An automated solid-state form screening of Compound A was done using a binary solvent system. Screening experiments consisted of an array of 13 solvents (water, methanol, ethanol, acetone, acetonitrile, isopropyl alcohol, ethyl acetate, toluene, tetrahydrofuran (THF), dichloromethane, 2-butanone (MEK), 1-butanol, and heptane) under slow evaporation crystallization conditions. Specifically, saturated solutions of Compound A (prepared as described in Example 1 above) in 13 different solvents were prepared by adding solid powder of Compound A, Form I (50 mg, prepared as described in Example 1 above) and the selected solvent to 20 mL vials. The resulting solutions were stirred and heated to 40° C. All preparations dissolved quickly except in water, toluene, and heptane. Table 1 provides a summary of the visual solubility of Compound A, Form I in the noted solvents.

[4] = Moisture sorption analysis (DVS)
Procedure: The moisture sorption analysis was performed using a Hiden Isochema system Model IGAsorp. The sample was run in a stainless-steel mesh crucible. The sample was initially dried at 60° C. for 30 minutes then the moisture profile was evaluated by monitoring vapor adsorption/desorption over the range of 0 to 90% relative humidity at 25° C. The moisture profile consisted of 2 cycles of vapor adsorption/desorption.

[5] = Hygroscopicity and water solubility by USP methods; conditions: isolated solid, freebase
Procedure: The isolated solid (Compound A, as a freebase) was a white crystalline solid, hygroscopic and insoluble in water as determined by USP methods. […] The XRD for Form I of Compound A differed from the XRD of a sample of the HCl salt of Compound A (e.g., FIG. 15). […] (equivalent to 0.23 mole of water) due to surface water loss and 0.5% between 182° C. and 219° C. due to melting/decomposition (as shown in FIG. 12). This differed from the TGA spectrum of the HCl salt of Compound A (e.g., FIG. 17).

[6] = at the end of a second moisture sorption-desorption cycle

CC1(C)CC=C(c2nc(C3CC(C)(C)OC(C)(C)C3)ccc2NC(=O)c2nc(C#N)c[nH]2)CC1 [Compound A, Form I, 4-cyano-N-[2-(4,4-dimethylcyclohex-1-en-1-yl)-6-(2,2,6,6-tetramethyltetrahydro-2H-pyran-4-yl)pyridine-3-yl]-1H-imidazole-2-carboxamide]
Saturated Conc. ([1]; 1-Butanol slurry): 90 mg/mL | Saturated Conc. ([1]; Acetone slurry): 130 mg/mL | Saturated Conc. ([1]; Acetonitrile slurry): 80 mg/mL | Saturated Conc. ([1]; DCM (dichloromethane) slurry): 210 mg/mL | Saturated Conc. ([1]; Ethanol slurry): 110 mg/mL | Saturated Conc. ([1]; Ethyl Acetate slurry): 120 mg/mL | Saturated Conc. ([1]; IPA (isopropyl acetate) slurry): 95 mg/mL | Saturated Conc. ([1]; Methanol slurry): 80 mg/mL | Saturated Conc. ([1]; THF (tetrahydrofuran) slurry): 420 mg/mL | XRPD pattern of solids isolated from solvent slurries ([1]; all solvent slurries except THF and DCM): consistent with Form I | Relative thermodynamic stability of polymorphs ([2]; as indicated by competitive slurry, hypothesized): most thermodynamically stable polymorph | Visual Solubility ([3]; 1-Butanol): Dissolve | Visual Solubility ([3]; Acetone): Dissolve | Visual Solubility ([3]; Acetonitrile): Dissolve | Visual Solubility ([3]; Dichloromethane): Dissolve | Visual Solubility ([3]; Ethanol): Dissolve | Visual Solubility ([3]; Ethyl Acetate): Dissolve | Visual Solubility ([3]; Heptane): Suspension | solubility ([3]; IPA (isopropyl alcohol), IPA): > 5000 µg/mL | Visual Solubility ([3]; IPA): Dissolve | Visual Solubility ([3]; Methanol): Dissolve | Visual Solubility ([3]; MethylEthylKetone (MEK)): Dissolve | Visual Solubility ([3]; THF): Dissolve | Visual Solubility ([3]; Toluene): Suspension | Visual Solubility ([3]; Water): Suspension | solubility ([3]; methyl ethyl ketone (MEK, 2-butanone), MethylEthylKetone (MEK)): > 5000 µg/mL | solubility ([3]; 1-Butanol): > 5000 µg/mL | solubility ([3]; Acetone): > 5000 µg/mL | solubility ([3]; Acetonitrile): > 5000 µg/mL | solubility ([3]; Dichloromethane): > 5000 µg/mL | solubility ([3]; Ethanol): > 5000 µg/mL | solubility ([3]; Ethyl Acetate): > 5000 µg/mL | solubility ([3]; Methanol): > 5000 µg/mL | solubility ([3]; tetrahydrofuran (THF), THF): > 5000 µg/mL | Hygroscopicity by DVS ([4]; 0 to 90% relative humidity at 25° C.): hygroscopic | Crystalline form upon humidity cycling (XRPD before and after DVS) ([4]; 2 cycles of adsorption/desorption): did not change | Moisture retained [4, 6]: 1.8% | Moisture retained, equivalent mole of water [4, 6]: 0.47 mole of water | Moisture adsorption ([4]; up to 90% RH, 25° C.): 41.8% | Hygroscopicity [5]: hygroscopic | Solubility in water [5]: insoluble

CC1(C)CC=C(c2nc(C3CC(C)(C)OC(C)(C)C3)ccc2NC(=O)c2nc(C#N)c[nH]2)CC1 [Compound A, Form II, 4-cyano-N-[2-(4,4-dimethylcyclohex-1-en-1-yl)-6-(2,2,6,6-tetramethyltetrahydro-2H-pyran-4-yl)pyridine-3-yl]-1H-imidazole-2-carboxamide]
Time to complete conversion to Form I ([2]; competitive slurry in water at RT (about 20° C.)): 3 days
